Experiments:
Experiment in all cases: Test D controlled growth environment herbicide test, pre- and postemergence
Type in all cases: in vivo
[1] = tested on: barley, spring (spring barley, Hordeum vulgare)
Description: (§1) Seeds of plant species selected from bluegrass (annual bluegrass, Poa annua), blackgrass (Alopecurus myosuroides), Canada thistle (Cirsium arvense), canarygrass (Phalaris minor), chickweed (common chickweed, Stellaria media), geranium, cutleaf (cutleaf geranium, Geranium dissectum), galium (catchweed bedstraw, Galium aparine), bromegrass, downy (downy bromegrass, Bromus tectorum), field poppy (Papaver rhoeas), field violet (Viola arvensis), foxtail, green (green foxtail, Setaria viridis), deadnettle (henbit deadnettle, Lamium amplexicaule), ryegrass, Italian (Italian ryegrass, Lolium multiflorum), kochia (Kochia scoparia), lambsquarters (Chenopodium album), oilseed rape (Brassica napus), pigweed (Amaranthus retroflexus), chamomile (scentless chamomile, Matricaria inodora), Russian thistle (Salsola kali), speedwell (bird's-eye speedwell, Veronica persica), barley, spring (spring barley, Hordeum vulgare), wheat, spring (spring wheat, Triticum aestivum), buckwheat, wild (wild buckwheat, Polygonum convolvulus), mustard, wild (wild mustard, Sinapis arvensis), oat, wild (wild oat, Avena fatua), radish, wild (wild radish, Raphanus raphanistrum), windgrass (Apera spica-venti), barley, winter (winter barley, Hordeum vulgare), and wheat, winter (winter wheat, Triticum aestivum) were planted into a silt loam soil and treated preemergence with test chemicals formulated in a non-phytotoxic solvent mixture which included a surfactant.
(§2) At the same time, these species were planted in pots containing Redi-Earth® planting medium (Scotts Company, 14111 Scottslawn Road, Marysville, Ohio 43041) comprising spaghnum peat moss, vermiculite, wetting agent and starter nutrients and treated with postemergence applications of the test chemicals formulated in the same manner. Plants ranged in height from 2 to 18 cm (1- to 4-leaf stage). Treated plants and controls were maintained in a controlled growth environment for 14 to 21 d after which time all species were compared to controls and visually evaluated. Plant response ratings, summarized in Table D, are based on a scale of 0 to 100 where 0 is no effect and 100 is complete control. A dash (-) response means no test result.

[2] = tested on: barley, winter (winter barley, Hordeum vulgare)
Description: as §1, §2

[3] = tested on: bluegrass (annual bluegrass, Poa annua)
Description: as §1, §2

[4] = tested on: canarygrass (Phalaris minor)
Description: as §1, §2

[5] = tested on: chickweed (common chickweed, Stellaria media)
Description: as §1, §2

[6] = tested on: deadnettle (henbit deadnettle, Lamium amplexicaule)
Description: as §1, §2

[7] = tested on: field poppy (Papaver rhoeas)
Description: as §1, §2

[8] = tested on: foxtail, green (green foxtail, Setaria viridis)
Description: as §1, §2

[9] = tested on: mustard, wild (wild mustard, Sinapis arvensis)
Description: as §1, §2

[10] = tested on: radish, wild (wild radish, Raphanus raphanistrum)
Description: as §1, §2

[11] = tested on: ryegrass, Italian (Italian ryegrass, Lolium multiflorum)
Description: as §1, §2

[12] = tested on: wheat, winter (winter wheat, Triticum aestivum)
Description: as §1, §2

[13] = tested on: windgrass (Apera spica-venti)
Description: as §1, §2

[14] = Postemergence, 31 g ai/ha, scale 0 to 100 (0 no effect, 100 complete control)
[15] = Postemergence, 125 g ai/ha, visual rating on scale 0 (no effect) to 100 (complete control), 14 to 21 d
[16] = Postemergence, 250 g ai/ha, scale 0 to 100 (0 no effect, 100 complete control)
[17] = Preemergence, 62 g ai/ha, scale 0 to 100 (0 no effect, 100 complete control)
[18] = Preemergence, 125 g ai/ha, scale 0 to 100 (0 no effect, 100 complete control)
[19] = Preemergence, 250 g ai/ha, scale 0 to 100 (0 no effect, 100 complete control)
[20] = postemergence, 62 g ai/ha, scale 0 to 100, 0 no effect, 100 complete control

With `CC(=O)Oc1c(C)nn(C)c(=O)c1-c1c(C)sc2c(C)cc(C)cc12` [Compound 27] the “Plant response rating, Barley, Spring” value [1, 14] was 0, the “Plant response rating, Barley, Spring” value [1, 15] was 5 and the “Plant response rating, Barley, Spring” value [1, 16] was 10. For the same molecule, the “Plant response rating (scale of 0 to 100), Barley, Spring” value ([1]; Preemergence, 31 g ai/ha) was 0, the “Plant response rating, Barley, Spring” value [1, 17] was 0 and the “Plant response rating, Barley, Spring” value [1, 18] was 0. The “Barley, Spring plant response rating” value [1, 19] was 0, the “Plant response rating, Barley, Spring” value [1, 20] was 0 and the “Plant response rating, Barley, Winter” value [2, 14] was 0. The “Plant response rating, Barley, Winter” value [2, 15] was 5, the “Plant response rating, Barley, Winter” value [2, 16] was 5 and the “Plant response rating (scale of 0 to 100), Barley, Winter” value ([2]; Preemergence, 31 g ai/ha) was 0. For the same molecule, the “Plant response rating, Barley, Winter” value [2, 17] was 0, the “Plant response rating, Barley, Winter” value [2, 18] was 10 and the “Barley, Winter plant response rating” value [2, 19] was 15. For the same molecule, the “Plant response rating, Barley, Winter” value [2, 20] was 0, the “Bluegrass plant response rating” value [3, 14] was 15 and the “Plant response rating, Bluegrass” value [3, 15] was 30. For the same molecule, the “Plant response rating, Bluegrass” value [3, 16] was 40, the “Plant response rating (scale of 0 to 100), Bluegrass” value ([3]; Preemergence, 31 g ai/ha) was 25 and the “Plant response rating, Bluegrass” value [3, 17] was 35. The “Plant response rating, Bluegrass” value [3, 18] was 70, the “Bluegrass plant response rating” value [3, 19] was 80 and the “Plant response rating, Bluegrass” value [3, 20] was 25. The “Canarygrass plant response rating” value [4, 14] was 75, the “Plant response rating, Canarygrass” value [4, 15] was 85 and the “Plant response rating, Canarygrass” value [4, 16] was 90. The “Plant response rating (scale of 0 to 100), Canarygrass” value ([4]; Preemergence, 31 g ai/ha) was 85, the “Plant response rating, Canarygrass” value [4, 17] was 95 and the “Plant response rating, Canarygrass” value [4, 18] was 100. The “Plant response rating, Canarygrass” value [4, 19] was 100, the “Plant response rating, Canarygrass” value [4, 20] was 80 and the “Chickweed plant response rating” value [5, 14] was 95. The “Plant response rating, Chickweed” value [5, 15] was 100, the “Plant response rating, Chickweed” value [5, 16] was 100 and the “Plant response rating (scale of 0 to 100), Chickweed” value ([5]; Preemergence, 31 g ai/ha) was 100. For the same molecule, the “Plant response rating, Chickweed” value [5, 17] was 100, the “Plant response rating, Chickweed” value [5, 18] was 100 and the “Plant response rating, Chickweed” value [5, 19] was 100. The “Plant response rating, Chickweed” value [5, 20] was 100, the “Deadnettle plant response rating” value [6, 14] was 5 and the “Plant response rating, Deadnettle” value [6, 15] was 30. For the same molecule, the “Plant response rating, Deadnettle” value [6, 16] was 60, the “Plant response rating (scale of 0 to 100), Deadnettle” value ([6]; Preemergence, 31 g ai/ha) was 0 and the “Plant response rating, Deadnettle” value [6, 17] was 0. For the same molecule, the “Plant response rating, Deadnettle” value [6, 18] was 55, the “Plant response rating, Deadnettle” value [6, 19] was 80 and the “Plant response rating, Deadnettle” value [6, 20] was 5. For the same molecule, the “Field Poppy plant response rating” value [7, 14] was 85, the “Plant response rating, Field Poppy” value [7, 15] was 100 and the “Plant response rating, Field Poppy” value [7, 16] was 100. For the same molecule, the “Plant response rating (scale of 0 to 100), Field Poppy” value ([7]; Preemergence, 31 g ai/ha) was 100, the “Plant response rating, Field Poppy” value [7, 17] was 100 and the “Plant response rating, Field Poppy” value [7, 18] was 100. The “Plant response rating, Field Poppy” value [7, 19] was 100, the “Plant response rating, Field Poppy” value [7, 20] was 100 and the “Foxtail, Green plant response rating” value [8, 14] was 70. For the same molecule, the “Plant response rating, Foxtail, Green” value [8, 15] was 80, the “Plant response rating, Foxtail, Green” value [8, 16] was 80 and the “Plant response rating (scale of 0 to 100), Foxtail, Green” value ([8]; Preemergence, 31 g ai/ha) was 95. The “Plant response rating, Foxtail, Green” value [8, 17] was 95, the “Plant response rating, Foxtail, Green” value [8, 18] was 100 and the “Plant response rating, Foxtail, Green” value [8, 19] was 100. The “Plant response rating, Foxtail, Green” value [8, 20] was 80, the “Mustard, Wild plant response rating” value [9, 14] was 15 and the “Plant response rating, Mustard, Wild” value [9, 15] was 30. For the same molecule, the “Plant response rating, Mustard, Wild” value [9, 16] was 75, the “Plant response rating (scale of 0 to 100), Mustard, Wild” value ([9]; Preemergence, 31 g ai/ha) was 40 and the “Plant response rating, Mustard, Wild” value [9, 17] was 40. For the same molecule, the “Plant response rating, Mustard, Wild” value [9, 18] was 45, the “Plant response rating, Mustard, Wild” value [9, 19] was 65 and the “Plant response rating, Mustard, Wild” value [9, 20] was 40. The “Radish, Wild plant response rating” value [10, 14] was 65, the “Plant response rating, Radish, Wild” value [10, 15] was 85 and the “Plant response rating, Radish, Wild” value [10, 16] was 90. For the same molecule, the “Plant response rating (scale of 0 to 100), Radish, Wild” value ([10]; Preemergence, 31 g ai/ha) was 0, the “Plant response rating, Radish, Wild” value [10, 17] was 50 and the “Plant response rating, Radish, Wild” value [10, 18] was 60. For the same molecule, the “Plant response rating, Radish, Wild” value [10, 19] was 95, the “Plant response rating, Radish, Wild” value [10, 20] was 75 and the “Ryegrass, Italian plant response rating” value [11, 14] was 80. For the same molecule, the “Plant response rating, Ryegrass, Italian” value [11, 15] was 85, the “Plant response rating, Ryegrass, Italian” value [11, 16] was 85 and the “Plant response rating (scale of 0 to 100), Ryegrass, Italian” value ([11]; Preemergence, 31 g ai/ha) was 90. For the same molecule, the “Plant response rating, Ryegrass, Italian” value [11, 17] was 100, the “Plant response rating, Ryegrass, Italian” value [11, 18] was 100 and the “Plant response rating, Ryegrass, Italian” value [11, 19] was 100. The “Plant response rating, Ryegrass, Italian” value [11, 20] was 85, the “Wheat, Winter plant response rating” value [12, 14] was 0 and the “Plant response rating, Wheat, Winter” value [12, 15] was 5. The “Plant response rating, Wheat, Winter” value [12, 16] was 10, the “Plant response rating (scale of 0 to 100), Wheat, Winter” value ([12]; Preemergence, 31 g ai/ha) was 0 and the “Plant response rating, Wheat, Winter” value [12, 17] was 0. For the same molecule, the “Plant response rating, Wheat, Winter” value [12, 18] was 0, the “Plant response rating, Wheat, Winter” value [12, 19] was 5 and the “Plant response rating, Wheat, Winter” value [12, 20] was 5. The “Windgrass plant response rating” value [13, 14] was 75, the “Plant response rating, Windgrass” value [13, 15] was 80 and the “Plant response rating, Windgrass” value [13, 16] was 90. The “Plant response rating (scale of 0 to 100), Windgrass” value ([13]; Preemergence, 31 g ai/ha) was 75, the “Plant response rating, Windgrass” value [13, 17] was 85 and the “Plant response rating, Windgrass” value [13, 18] was 100. The “Plant response rating, Windgrass” value [13, 19] was 100 and the “Plant response rating, Windgrass” value [13, 20] was 75.
